The record followed here is US9040530B2, “1,2,4-triazine-6-carboxamide kinase inhibitors” (Portola Pharmaceuticals, Inc., priority 2012, dated 2015).

The structures appear in SMILES notation.

The target of the assay is T1, full length active recombinant SYK enzyme (Homo sapiens, UniProt P43405).
T1 construct: full length active recombinant SYK enzyme (Millipore, Calif.); purchased Millipore
The experiment in a line: Inhibition of Syk tyrosine phosphorylation activity (LANCE TR-FRET kinase assay). It counts as biochemical. The following applies: 1 nM active SYK enzyme, 550 nM SYK-substrate, 100 μM ATP, 1 hour at room temperature. As to the method:
The in vitro and in vivo human Syk activities of the inventive compounds can be determined by various procedures known in the art, such as a test for their ability to inhibit the activity of human plasma Syk.
Inhibition of Syk Tyrosine Phosphorylation Activity
SYK tyrosine phosphorylation activity is measured using the LANCE™ Technology developed by Perkin Elmer Life and Analytical Sciences (Boston, Mass.). LANCE™ refers to homogeneous time resolved fluorometry applications using techniques such as time-resolved fluorescence resonance energy transfer assay (TR-FRET) (see generally for procedures in Perkin Elmer Application Note—How to Optimize a Tyrosine Kinase Assay Using Time Resolved Fluorescence-Based LANCE Detection, wwww.perkinelmer.com/lifesciences). The assay principle involves detection of a phosphorylated substrate using energy transfer from a phosphospecific europium-labeled antibody to streptavidin-allophycocyanin as an acceptor.
Molecules are reconstituted in 30% DMSO and serially diluted 1:3 with the final dilution containing DMSO in the absence of the candidate molecule. The final DMSO concentration in the assay is 3%. Kinase assays are performed as a two part reaction. […] The second reaction involves termination of the kinase reaction and the simultaneous addition of the detection reagents-europium-labeled anti-phosphotyrosine reagent (Eu-W1024-PY100, Perkin Elmer, Boston, Mass.) and Streptavidin-Allophycocyanin detection reagent (SA-APC, Prozyme, CA). The kinase reaction is performed in a black U-bottom 96-well microtitre plate. […] The reaction is allowed to proceed for 1 hour at room temperature. The quench buffer contains 100 mM Tris pH 7.5, 300 mM […], 20 mM EDTA, 0.02% Brij35, and 0.5% BSA. The detection reagents are added to the reaction mixture at the following dilutions-1:500 for Eu-W1024-PY100 and 1:250 for SA-APC. The kinase reaction is terminated by the addition of 50 μL quench buffer containing the detection reagents. The detection is allowed to proceed for 1 hr at room temperature. Detection of the phosphorlated substrate in the absence and presence of inhibitors is measured in the TR-FRET instrument, Analyst HT (Molecular Probes, Sunnyvale, Calif.) and the condition for measurements are set up using CriterionHost Release 2.0 (Molecular Probes, Sunnyvale, Calif.). […] IC50s were derived by non-linear regression analysis.
In general terms: TR-FRET usually uses a lanthanide donor and a delayed reading to cut background.
On to `CC[C@@H](Nc1nnc(C(N)=O)c(Nc2cccc(Cl)c2)n1)C(N)=O` [Example 194, (R)-3-((1-amino-1-oxobutan-2-yl)amino)-5-((3-chlorophenyl)amino)-1,2,4-triazine-6-carboxamide], for which the IC50 was in the range of 10 to 100 nM.
Consider `CC(C)C[C@@H](Nc1nnc(C(N)=O)c(Nc2ccc(Cl)c(Cl)c2)n1)C(N)=O` [Example 255, (R)-3-((1-amino-4-methyl-1-oxopentan-2-yl)amino)-5-((3,4-dichlorophenyl)amino)-1,2,4-triazine-6-carboxamide], for which the IC50 lay in the range of 10 to 100 nM.
Take `CC(C)C[C@@H](Nc1nnc(C(N)=O)c(Nc2ccc3c(ccc[n+]3[O-])c2)n1)C(N)=O` [Example 54, (R)-6-((3-((1-amino-4-methyl-1-oxopentan-2-yl)amino)-6-carbamoyl-1,2,4-triazin-5-yl)amino)quinoline 1-oxide]: the IC50 is 10 to 100 nM.
Then `NC(=O)c1nnc(N[C@@H]2CCCC[C@@H]2N)nc1Nc1ccc(C(=O)N2CCC2)cc1` [Example 63, 3-(((1R,2S)-2-aminocyclohexyl)amino)-5-((4-(azetidine-1-carbonyl)phenyl)amino)-1,2,4-triazine-6-carboxamide], with 10 to 100 nM.
The result for `Cn1ncc2ccc(Nc3nc(N[C@@H]4CCCC[C@@H]4N)nnc3C(N)=O)cc21` [Example 182, 3-(((1R,2S)-2-aminocyclohexyl)amino)-5-((1-methyl-1H-indazol-6-yl)amino)-1,2,4-triazine-6-carboxamide] reads < 1 nM.
Then `NC(=O)c1nnc(N[C@@H]2CCCC[C@@H]2N)nc1Nc1cccc(-c2ncco2)c1` [Example 7, 3-(((1R,2S)-2-aminocyclohexyl)amino)-5-((3-(oxazol-2-yl)phenyl)amino)-1,2,4-triazine-6-carboxamide], with 1 to 10 nM; and `NC(=O)c1nnc(N[C@@H]2CCCC(F)(F)[C@@H]2N)nc1Nc1ccc2c(ccc[n+]2[O-])c1` [Example 50, 6-((3-(((1R,2R)-2-amino-3,3-difluorocyclohexyl)amino)-6-carbamoyl-1,2,4-triazin-5-yl)amino)quinoline 1-oxide], with 100 to 1000 nM.
On to `Cn1ncc2c(Nc3nc(N[C@@H]4CCCC[C@@H]4N)nnc3C(N)=O)ccnc21` [Example 104, 3-(((1R,2S)-2-aminocyclohexyl)amino)-5-((1-methyl-1H-pyrazolo[3,4-b]pyridin-4-yl)amino)-1,2,4-triazine-6-carboxamide], for which the half-maximal inhibitory concentration (IC50) was in the range of 10 to 100 nM.
Then `CC[C@@H](Nc1nnc(C(N)=O)c(Nc2ccc3c(cnn3C)c2)n1)C(N)=O` [Example 110, (R)-3-((1-amino-1-oxobutan-2-yl)amino)-5-((1-methyl-1H-indazol-5-yl)amino)-1,2,4-triazine-6-carboxamide], with 10 to 100 nM.
For the compound `Cn1ccc2cc(Nc3nc(N[C@@H]4CCCC(F)(F)[C@@H]4N)nnc3C(N)=O)cnc21` [Example 151, 3-(((1R,2R)-2-amino-3,3-difluorocyclohexyl)amino)-5-((1-methyl-1H-pyrrolo[2,3-b]pyridin-5-yl)amino)-1,2,4-triazine-6-carboxamide], the IC50 is 100 to 1000 nM.
Then `Cc1ccc(Nc2nc(N[C@H](Cc3cccs3)C(N)=O)nnc2C(N)=O)cc1` [Example 188, (R)-3-(1-amino-1-oxo-3-(thiophen-2-yl)propan-2-ylamino)-5-(p-tolylamino)-1,2,4-triazine-6-carboxamide], with 10 to 100 nM.
`NC(=O)c1nnc(N[C@@H]2CCCC[C@@H]2N)nc1Nc1ccc(F)c(F)c1` [Example 18, 3-(((1R,2S)-2-aminocyclohexyl)amino)-5-((3,4-difluorophenyl)amino)-1,2,4-triazine-6-carboxamide]: the IC50 lay within 10 to 100 nM.
The result for `CC(C)C[C@@H](Nc1nnc(C(N)=O)c(Nc2cccc3c2cnn3C)n1)C(N)=O` [Example 108, (R)-3-((1-amino-4-methyl-1-oxopentan-2-yl)amino)-5-((1-methyl-1H-indazol-4-yl)amino)-1,2,4-triazine-6-carboxamide] reads 10 to 100 nM.
Consider `CC[C@@H](Nc1nnc(C(N)=O)c(Nc2ccc3ccn(C)c3c2)n1)C(N)=O` [Example 163, (R)-3-((1-amino-1-oxobutan-2-yl)amino)-5-((1-methyl-1H-indol-6-yl)amino)-1,2,4-triazine-6-carboxamide], for which the 50% inhibitory concentration (IC50) is 10 to 100 nM.
Then `CN(C)c1ccc(Nc2nc(N[C@@H]3CCCC[C@@H]3N)nnc2C(N)=O)cc1Cl` [Example 175, 3-(((1R,2S)-2-aminocyclohexyl)amino)-5-((3-chloro-4-(dimethylamino)phenyl)amino)-1,2,4-triazine-6-carboxamide], with 1 to 10 nM.
As for `NC(=O)c1nnc(N[C@@H]2CCCC(F)(F)[C@@H]2N)nc1Nc1ccccc1` [Example 96, 3-(((1R,2R)-2-amino-3,3-difluorocyclohexyl)amino)-5-(phenylamino)-1,2,4-triazine-6-carboxamide], the IC50 lay in the range of 10 to 100 nM.
Then `CC[C@@H](Nc1nnc(C(N)=O)c(Nc2ccc3c(c2)COCC3)n1)C(N)=O` [Example 227, (R)-3-((1-amino-1-oxobutan-2-yl)amino)-5-(isochroman-7-ylamino)-1,2,4-triazine-6-carboxamide], with 1 to 10 nM; and `NC(=O)c1nnc(N[C@@H]2CCCC[C@@H]2N)nc1Nc1ccc(N2CCOCC2=O)c(F)c1` [Example 33, 3-(((1R,2S)-2-aminocyclohexyl)amino)-5-((3-fluoro-4-(3-oxomorpholino)phenyl)amino)-1,2,4-triazine-6-carboxamide], with 100 to 1000 nM; and `CC[C@@H](Nc1nnc(C(N)=O)c(Nc2ccc(Cl)cc2)n1)C(N)=O` [Example 200, (R)-3-((1-amino-1-oxobutan-2-yl)amino)-5-((4-chlorophenyl)amino)-1,2,4-triazine-6-carboxamide], with 10 to 100 nM.
Then `NC(=O)c1nnc(N[C@@H]2CCCC(F)(F)[C@@H]2N)nc1Nc1ccc2ncsc2c1` [Example 43, 3-(((1R,2R)-2-amino-3,3-difluorocyclohexyl)amino)-5-(benzo[d]thiazol-6-ylamino)-1,2,4-triazine-6-carboxamide], with 10 to 100 nM; and `CN(C)c1ccc(Nc2nc(N[C@@H]3CCCC[C@@H]3N)nnc2C(N)=O)cc1F` [Example 161, 3-(((1R,2S)-2-aminocyclohexyl)amino)-5-((4-(dimethylamino)-3-fluorophenyl)amino)-1,2,4-triazine-6-carboxamide], with 10 to 100 nM.
Then `NC(=O)c1nnc(N[C@@H]2CCCC[C@@H]2N)nc1Nc1cccc(OC(F)F)c1` [Example 124, 3-(((1R,2S)-2-aminocyclohexyl)amino)-5-((3-(difluoromethoxy)phenyl)amino)-1,2,4-triazine-6-carboxamide], with 1 to 10 nM.
With `CC[C@@H](Nc1nnc(C(N)=O)c(Nc2ccc(C(F)(F)F)c(Cl)c2)n1)C(N)=O` [Example 241, (R)-3-((1-amino-1-oxobutan-2-yl)amino)-5-((3-chloro-4-(trifluoromethyl)phenyl)amino)-1,2,4-triazine-6-carboxamide], the IC50 lay in the range of 10 to 100 nM.
For the compound `NC(=O)c1nnc(N[C@H]2CC[C@@H](N)CC2)nc1Nc1ccc2ncccc2c1` [Example 56, 3-(((1S,4S)-4-aminocyclohexyl)amino)-5-(quinolin-6-ylamino)-1,2,4-triazine-6-carboxamide], the IC50 was in the range of 10 to 100 nM.
The result for `NC(=O)c1nnc(N[C@@H]2CCOC[C@@H]2N)nc1Nc1cccc(C(F)(F)F)c1` [Example 251, 3-(((3R,4R)-3-aminotetrahydro-2H-pyran-4-yl)amino)-5-((3-(trifluoromethyl)phenyl)amino)-1,2,4-triazine-6-carboxamide] reads 10 to 100 nM.
The result for `COc1cc(Nc2nc(N[C@@H]3CCOC[C@@H]3N)nnc2C(N)=O)ccc1Cl` [Example 256, 3-(((3R,4R)-3-aminotetrahydro-2H-pyran-4-yl)amino)-5-((4-chloro-3-methoxyphenyl)amino)-1,2,4-triazine-6-carboxamide] reads 10 to 100 nM; that for `Cc1ccc(Nc2nc(N[C@@H](C(N)=O)c3ccccc3)nnc2C(N)=O)cc1` [Example 191, (R)-3-(2-amino-2-oxo-1-phenylethylamino)-5-(p-tolylamino)-1,2,4-triazine-6-carboxamide], 100 to 1000 nM.
As to `CC[C@@H](Nc1nnc(C(N)=O)c(Nc2ccc(Cl)c(C)c2)n1)C(N)=O` [Example 221, (R)-3-((1-amino-1-oxobutan-2-yl)amino)-5-((4-chloro-3-methylphenyl)amino)-1,2,4-triazine-6-carboxamide], the IC50 is 10 to 100 nM.

What is called IC50 is the point on the concentration scale where inhibition reaches its midpoint.
